This assay relates to HIV-1 (NL4-3 strain). The assay can be described thus: Assay for inhibition of HIV replication (MT4-gag-GFP reporter cell line, kinetic assay). It is filed as cell-based. Conditions: IP from 4-parameter dose response curve. The procedure: This assay is useful for assessing the ability of a compound of the present inventiongin to inhibit HIV replication. The assay is a kinetic assay that employs a reporter cell line (MT4-gag-GFP) to quantify the number of new cells infected in each round of replication.
MT4-GFP cells (250,000 cells/ml) are bulk-infected with HIV-1 (NL4-3 strain) at low multiplicity of infection (MOI) in RPMI+10% FBS for 24 hours. Cells are then washed once in RPMI+10% FBS and resuspended in RPMI+0% or 10% or 100% normal human serum (NHS). Test compounds are serial-diluted in DMSO using an ECHO liquid handler. The infected MT4-GFP cells are added to a 384-well poly-D-lysine coated black plate with clear bottom in which the diluted test compounds are placed. The cells are seeded at 8,000 cells per well and the final DMSO concentration is adjusted to 0.4%. The infected cells (Green GFP cells) are then quantified at both 24 and 48 hours post incubation using Acumen eX3. Viral reproductive ratio (R0) is determined using the number of infected cells at 48 hours divided by the number of infected cells at 24 hours. Percent viral growth inhibition is calculated by [1−(R−Rtripledrug)/(RDMSO−Rtripledrug)]*100. Compound potency IP or IC50 can be determined using a 4-parameter dose response curve analysis.

[1] abbreviates: infected MT4-GFP cells in 100% normal human serum, read-out: WILD TYPE CELL ASSAY Viking IP (100% NHS).
Setting [2] is: infected MT4-GFP cells in RPMI + 0% normal human serum, read-out: WILD TYPE CELL ASSAY Viking IP (0% NHS).

Where two headings read alike, the source gives them in different places. Bounds are passed on as bounds.

The values below come from US10081647B2, “Phosphate substituted quinolizine derivatives useful as HIV integrase inhibitors” (Merck Sharp & Dohme Corp., priority 2015, dated 2018).

As to `COCCC1(C)C(=O)c2c(O)c(=O)c(C(=O)NCc3ccc(F)cc3F)cn2CC1OCCP(=O)(OCOC(=O)OC(C)C)OCOC(=O)OC(C)C` (stereo not shown) [Compound 86], the IC50 under setting [1] is 980 nM and the IC50 under setting [2] is 3.5 nM.
Taken in the same sequence, the figures for `CCOP(=O)(CCOC1Cn2cc(C(=O)NCc3ccc(F)cc3F)c(=O)c(O)c2C(=O)C1(C)C)OCC` (stereo not shown) [Compound 66] were 1280 nM and 19 nM.
The like results for `CCOP(=O)(CCCNC1Cn2cc(C(=O)NCc3ccc(F)cc3F)c(=O)c(O)c2C(=O)C1(C)C)OCC` (stereo not shown) [Compound 105] were, in that order, 628 nM and 15 nM.
In the case of `CCOP(=O)(CCOCCC1(C)C(=O)c2c(O)c(=O)c(C(=O)NCc3ccc(F)cc3F)cn2CC1OC)OCC` (stereo not shown) [Compound 57], the IC50 reads like this: under setting [1], 84 nM; under setting [2], 7 nM.
For the compound `CCOP(=O)(CCOC1Cn2cc(C(=O)NCc3ccc(F)cc3F)c(=O)c(O)c2C(=O)C1(C)C)OCC` (stereo not shown) [Compound 65], the IC50 was found to be 131 nM under setting [1] and 5.4 nM under setting [2].
For the compound `CC(C)OC(=O)OCOP(=O)(CCCNC1Cn2cc(C(=O)NCc3ccc(F)cc3F)c(=O)c(O)c2C(=O)C1(C)C)OCOC(=O)OC(C)C` (stereo not shown) [Compound 110], the IC50 under setting [1] was 154 nM and the IC50 under setting [2] is 8.8 nM.
The like results for `CC(C)OC(=O)OCOP(=O)(CCOC1Cn2cc(C(=O)NCc3ccc(F)cc3F)c(=O)c(O)c2C(=O)C1(C)C)OCOC(=O)OC(C)C` (stereo not shown) [Compound 70] were, in that order, 2020 nM and 13 nM.
For `CCOP(=O)(CCCOC1Cn2cc(C(=O)NCc3ccc(F)cc3F)c(=O)c(O)c2C(=O)C1(C)CCOC)OCC` (stereo not shown) [Compound 92], the IC50 by setting is: under setting [1], 2320 nM; under setting [2], 143 nM.
For the compound `CCOP(=O)(CCCNC1Cn2cc(C(=O)NCc3ccc(F)cc3F)c(=O)c(O)c2C(=O)C1(C)C)OCC` (stereo not shown) [Compound 106], the IC50 was 95 nM under setting [1] and 3.6 nM under setting [2].
As for `COC1Cn2cc(C(=O)NCc3ccc(F)cc3F)c(=O)c(O)c2C(=O)C1(C)CCOCCCP(=O)(O)O` (stereo not shown) [Compound 48], the IC50 runs as follows: (Human immunodeficiency virus 1, NL43, infected MT4-GFP cells in 100% normal human serum, read-out: WILD TYPE CELL ASSAY Viking IP (100% NHS)) 6940 nM; (Human immunodeficiency virus 1, NL43, infected MT4-GFP cells in RPMI + 0% normal human serum, read-out: WILD TYPE CELL ASSAY Viking IP (0% NHS)) 626 nM.
Turning to `CCOP(=O)(CCOCCC1(C)C(=O)c2c(O)c(=O)c(C(=O)NCc3ccc(F)cc3F)cn2CC1OC)OCC` (stereo not shown) [Compound 55], the IC50 reads like this: under setting [1], 128 nM; under setting [2], 6.7 nM.
For `COC1Cn2cc(C(=O)NCc3ccc(F)cc3F)c(=O)c(O)c2C(=O)C1(C)COCCP(=O)(OCOC(=O)OC(C)C)OCOC(=O)OC(C)C` (stereo not shown) [Compound 43], the IC50 was 1480 nM under setting [1] and 1.4 nM under setting [2].
`CCOP(=O)(CCOCCC1(C)C(=O)c2c(O)c(=O)c(C(=O)NCc3ccc(F)cc3F)cn2CC1OC)OCC` (stereo not shown) [Compound 54]: the IC50 reads like this: under setting [1], 223 nM; under setting [2], 11 nM.
Turning to `CCOP(=O)(CCOCC1(C)C(=O)c2c(O)c(=O)c(C(=O)NCc3ccc(F)cc3F)cn2CC1OC)OCC` (stereo not shown) [Compound 33], the IC50 by setting is: under setting [1], 188 nM; under setting [2], 13 nM.
With `COC1Cn2cc(C(=O)NCc3ccc(F)cc3F)c(=O)c(O)c2C(=O)C1(C)CCOCCP(=O)(OCOC(=O)OC(C)C)OCOC(=O)OC(C)C` (stereo not shown) [Compound 63], the IC50 reads like this: under setting [1], 566 nM; under setting [2], 4.6 nM.
Turning to `CCOP(=O)(CCCOC1Cn2cc(C(=O)NCc3ccc(F)cc3F)c(=O)c(O)c2C(=O)C1(C)CCOC)OCC` (stereo not shown) [Compound 89], the IC50 amounted to 211 nM under setting [1] and 15 nM under setting [2].
Take `CCOP(=O)(CCOC1Cn2cc(C(=O)NCc3ccc(F)cc3F)c(=O)c(O)c2C(=O)C1(C)CCOC)OCC` (stereo not shown) [Compound 77]: the IC50 reads like this: under setting [1], 128 nM; under setting [2], 5.5 nM.
In the case of `CC1(C)C(=O)c2c(O)c(=O)c(C(=O)NCc3ccc(F)cc3F)cn2CC1OCCP(=O)(O)O` (stereo not shown) [Compound 68], the IC50 by setting is: under setting [1], more than 8000 nM; under setting [2], more than 1000 nM.
Taken in the same sequence, the figures for `COC1Cn2cc(C(=O)NCc3ccc(F)cc3F)c(=O)c(O)c2C(=O)C1(C)CCOCCCP(=O)(O)O` (stereo not shown) [Compound 49] were more than 8400 nM and more than 1050 nM.
For the compound `CCOP(=O)(CCOC1Cn2cc(C(=O)NCc3ccc(F)cc3F)c(=O)c(O)c2C(=O)C1(C)CCOC)OCC` (stereo not shown) [Compound 78], the IC50 turned out to be 580 nM under setting [1] and 17 nM under setting [2].
Take `COCCC1(C)C(=O)c2c(O)c(=O)c(C(=O)NCc3ccc(F)cc3F)cn2CC1OCCP(=O)(O)O` (stereo not shown) [Compound 83]: the IC50 under setting [1] is 5380 nM and the IC50 under setting [2] was more than 1000 nM.
Taken in the same sequence, the figures for `COC1Cn2cc(C(=O)NCc3ccc(F)cc3F)c(=O)c(O)c2C(=O)C1(C)COCCP(=O)(O)O` (stereo not shown) [Compound 36] were 3600 nM and 629 nM.
As to `CCOP(=O)(CCCOC1Cn2cc(C(=O)NCc3ccc(F)cc3F)c(=O)c(O)c2C(=O)C1(C)CCOC)OCC` (stereo not shown) [Compound 91], the IC50 was 600 nM under setting [1] and 31 nM under setting [2].
